Source: patent US20250169495A1, “COMPOSITIONS AND METHODS FOR CONTROLLING DROSOPHILA FLIES” (Rutgers, The State University of New Jersey, priority 2023, published 2025)

What was measured:
[1] = test system: male and female Drosophila suzukii antennae; assay: Electroantennogram (EAG) assay; details: for strength of EAG response compared among treatments: 0.001-10 mg doses; for antennal (EAG) response: 0.001-10 mg doses in hexane, N=10
Description: Electroantennogram (EAG) assays were conducted to determine the antennal response of sexually mature male and female D. suzukii to ethyl butanoate, ethyl (E)-but-2-enoate, and 2-pentylfuran. The antennal responses of male and female D. suzukii to each compound were tested at five doses (0.001 mg, 0.01 mg, 0.1 mg, 1 mg, and 10 mg) diluted in hexane. The stimulus cartridge preparations, antennal preparations, and EAG apparatus used were similar to those previously described in the literature. Stimulus applicators consisted of a 14.5-cm-long glass Pasteur pipette containing 20 μL of each volatile dose (or hexane control) pipetted onto a 6×0.5-cm strip of filter paper. The applicators containing the impregnated filter paper were placed under the fume hood for 2 min to allow the hexane to evaporate. For the recording and base electrodes, a silver wire was inserted into a drawn capillary tube filled with phosphate-buffered saline (NaCl, 4 g; NA2HPO4, 0.57 g; KH2PO4, 0.1 g; KCl, 0.1 g in 500 ml distilled water). To attach the base electrode to the fly, the fly's abdomen was removed, and the sharp tip of the saline-filled capillary tube was pulled directly into the thoracic cavity. Once the fly preparation was mounted, the recording electrode was carefully moved toward the antenna using a micromanipulator until the antenna touched the pool of saline solution on the recording electrode. Antennal preparations were exposed to a constant stream of charcoal-filtered and humidified air at a rate of 1.5 l/min.
The EAG apparatus consisted of an IDAC-02 interface board for data acquisition and used Syntech software (Syntech Ltd., Hilversum, The Netherlands) for recording, storing, and quantifying EAG responses. Antennal preparations were primed with 1 mg of acetoin, a known attractant and antennally active compound, to ensure that the antennae were prepared correctly and responsive (positive control). Then, the antennae were exposed to a hexane control, followed by exposure to increasing doses of one of the volatiles. Each antenna was exposed to four rounds of each dose of a single compound before being discarded. Six antennae were tested daily: three from males and three from females. Test and control compounds were applied at 10 second(s) intervals at a pulse rate of 0.5 s, with a 1-min interval between each stimulus. Maximum amplitudes of depolarizations were measured (in millivolts) for each compound with the response from the hexane-only controls subtracted from the other doses to normalize the antennal response. In total, each dose of each compound was replicated 10 times for each sex.
To analyze the effect of dose of the three repellents on D. suzukii antennal responses, a generalized linear model (GLM) was used with a Poisson distribution and a log link function in SPSS Statistics 23.0 (IBM Corp, Armonk, NY, USA). The model included ‘Treatment’ (ethyl butanoate, ethyl (E)-but-2-enoate, and 2-pentylfuran), ‘Dose’, ‘Sex’, and their interactions as independent variables. This analysis, when significant, was followed by post hoc Bonferroni tests (α=0.05) to determine individual differences among groups. Prior to analysis, EAG data were normalized relative to the response to the hexane control.

[2] = Emission rate from polyethylene sachets, semi-field cages; format: physicochemical; details: sachet with 2.5 mL, 24 h
Description: On the day of testing, two bushes were placed in each cage (FIG. 6B). Each bush in the tent was surrounded by a metal tomato cage. The bagged blueberry fruit clusters in the field were clipped and brought inside the cages. Clusters of 10 berries were created and placed in water picks. Five berry clusters were distributed randomly and evenly on each tomato cage at different heights using green twist ties (FIG. 6B). The sachets used for the treatments were prepared according to the methods described by Gale et al. (2024). They were constructed from 8 cm strips of polyethylene tubing (5.1 cm width, 2 MIL thickness; ULINE, Pleasant Prairie, WI, USA) and polyester felt (Grainger, Lake Forest, IL, USA). One end of the polyethylene tubing was sealed with an impulse sealer. A 5 cm strip of felt was placed inside the sachet's open end, and a 2.5 mL aliquot of each treatment was pipetted onto the felt. The open end was then sealed shut with the impulse sealer, entirely sealing the saturated felt. A hole was punched at the top of each sachet, away from the treatment area to avoid damaging the sealed section, and green twist ties were used to hang the sachets in the center of a bush (FIG. 6B). Before loading the sachets, the weights of the empty sachets were taken. The sachets were weighed again directly after loading with the compounds and then a final time after the 24-hour test period to measure the emission rates of each volatile. Finally, the emission rates of compounds in the semi-field and field cage studies were calculated by subtracting the final weight of the sachets from the initial weight and dividing by the time interval (24 h or 3 days). These rates were then compared across repellent treatments using ANOVA, with Tukey pairwise comparisons conducted when significant differences were found.

mean emission rate (±SE) [2] [mg/h]	SMILES	strength of EAG response compared among treatments [1]	antennal (EAG) response [1]
54.9 ± 8.9	C/C=C/C(=O)OCC [ethyl (E)-but-2-enoate]	stronger antennal responses than 2-pentylfuran	dose-dependent antennal responses
82.3 ± 7.6	CCCCCc1ccco1 [2-pentylfuran, reference compound]		dose-dependent antennal responses
70.4 ± 14.2	CCCC(=O)OCC [ethyl butanoate]	stronger antennal responses than 2-pentylfuran	dose-dependent antennal responses
